# Test results reported in patent publication US11629171B2, “Beta-hairpin peptidomimetics” (POLYPHOR AG, priority 2017, dated 2023).
# Where a SMILES comes first, the peptide text is derived from it. Bridges are numbered along the chain shown (N, C = ends). Roman numbers before positions name the chains, in order. [ ]: non-standard residue; d: D form. Tle = CC(C)(C)[C@H](N)C(=O)O; Hiv = CC(C)[C@H](O)C(=O)O; dDab = NCC[C@@H](N)C(=O)O; Dab = NCC[C@H](N)C(=O)O; Dap = NC[C@H](N)C(=O)O
# Tests used:
# Assay type in all cases: cell-based
# [1] = system: human red blood cells (hRBC); assay: Hemolysis; settings: red cells of human, 1 h, 200
# In short: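 First, fresh human erythrocytes are washed in PBS; next, they are incubated at 20% (v/v) with compound at 200 μg/mL for 1 h at 37° C. Finally, centrifuged supernatants are diluted and OD540 is taken relative to the Triton X-100 lysis control.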
# [2] = system: Pseudomonas aeruginosa ATCC 27853; settings: ATCC 27853
# In short: (§1)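 MIC in μg/mL, read as absence of visible growth after 18-20 h incubation at 35° C, by standard CLSI microdilution. Peptides tested in two-fold serial dilution in cation-adjusted MH-II broth containing 0.002% (final) Polysorbate 80, against roughly 10^6 CFU/mL inocula.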
# [3] = system: Klebsiella pneumoniae SSI #3010; settings: SSI #3010
# In short: as §1
# [4] = system: Acinetobacter baumannii DSM 30008; settings: DSM 30008
# In short: as §1
# Escherichia coli 926415 = settings: 926415
# In short: as §1
# [5] = system: Enterobacter cloacae 848840; settings: 848840
# In short: as §1
# [6] = system: Escherichia coli ATCC 25922; settings: ATCC 25922
# In short: as §1
# [7] = system: Acinetobacter baumannii 872842; settings: 872842
# In short: as §1
# [8] = system: Klebsiella pneumoniae 968733; settings: 968733
# In short: as §1
SMILES,Hemolysis at 200 μg/mL [1],Pseudomonas aeruginosa ATCC 27853 MIC [2],Klebsiella pneumoniae SSI #3010 MIC [3],Acinetobacter baumannii DSM 30008 MIC [4],MIC (Escherichia coli 926415),MIC [5],Escherichia coli ATCC 25922 MIC [6],MIC [7],MIC [8]
"CC(=O)N[C@H](C(=O)N[C@H]1CCNC(=O)C[C@@H](C(=O)N[C@@H](CO)C(N)=O)NC(=O)[C@H](C(C)C)NC(=O)[C@H](CO)NC(=O)[C@H](Cc2c[nH]c3ccccc23)NC(=O)CNC(=O)[C@@H](CCN)NC(=O)[C@H](CCC(=O)N[C@@H](CCN)C(=O)N[C@H](C(=O)N[C@@H](CN)C(=O)N[C@H]2CCNC(=O)[C@H]([C@@H](C)O)NC(=O)[C@H](CCN)NC(=O)[C@H](CCN)NC(=O)[C@H](CC(C)C)NC(=O)[C@@H](CC(C)C)NC(=O)[C@H](CCN)NC2=O)[C@@H](C)O)NC(=O)[C@H](CN)NC(=O)[C@H](Cc2ccc(O)cc2)NC1=O)C(C)C [Ex. 346] (I: Ac-V[Dab]Y[Dap]E[dDab]GWSVDS-NH2 / II: [Dab]T[Dap][Dab][Dab][dL]L[Dab][Dab]T; lactam I:2-I:11, II:4-II:C; amide I:5-II:N)",<1%,0.125 µg/mL,0.0625 µg/mL,0.0625 µg/mL,0.25 µg/mL,0.125 µg/mL,0.0625 µg/mL,0.125 µg/mL,0.5 µg/mL
"CC(C)C[C@@H]1NC(=O)[C@@H](CC(C)C)NC(=O)[C@H](CCN)NC(=O)[C@@H](NC(=O)[C@H](CN)NC(=O)[C@@H](NC(=O)[C@H](CCN)NC(=O)CC[C@@H]2NC(=O)[C@H](CCN)NC(=O)[C@H](Cc3ccc(O)cc3)NC(=O)[C@@H](NC(=O)[C@@H](O)C(C)C)CCNC(=O)C[C@@H](C(=O)N[C@@H](CO)C(N)=O)NC(=O)[C@H](C(C)C)NC(=O)[C@H](CO)NC(=O)[C@H](Cc3c[nH]c4ccccc34)NC(=O)CNC(=O)[C@@H](CCN)NC2=O)[C@@H](C)O)CCNC(=O)[C@H]([C@@H](C)O)NC(=O)[C@H](CCN)NC(=O)[C@H](CCN)NC1=O [Ex. 347] (I: H-[Hiv][Dab]Y[Dab]E[dDab]GWSVDS-NH2 / II: [Dab]T[Dap][Dab][Dab][dL]L[Dab][Dab]T; lactam I:2-I:11, II:4-II:C; amide I:5-II:N)",<1%,0.125 µg/mL,0.0625 µg/mL,0.125 µg/mL,0.25 µg/mL,0.5 µg/mL,0.0625 µg/mL,0.25 µg/mL,1 µg/mL
CC(=O)N[C@H](C(=O)N[C@H]1CCN(C)C(=O)C[C@@H](C(=O)N[C@@H](CO)C(N)=O)NC(=O)[C@H](C(C)C)NC(=O)[C@H](CO)NC(=O)[C@H](Cc2c[nH]c3ccccc23)NC(=O)CNC(=O)[C@@H](CCN)NC(=O)[C@H](CCC(=O)N[C@@H](CCN)C(=O)N[C@H](C(=O)N[C@@H](CN)C(=O)N[C@H]2CCNC(=O)[C@H]([C@@H](C)O)NC(=O)[C@H](CCN)NC(=O)[C@H](CCN)NC(=O)[C@H](CC(C)C)NC(=O)[C@@H](CC(C)C)NC(=O)[C@H](CCN)NC2=O)[C@@H](C)O)NC(=O)[C@H](CCN)NC(=O)[C@H](Cc2ccc(O)cc2)NC1=O)C(C)C [Ex. 348],<1%,0.125 µg/mL,0.0625 µg/mL,0.125 µg/mL,0.5 µg/mL,0.5 µg/mL,0.0625 µg/mL,0.5 µg/mL,2 µg/mL
"CC(=O)N[C@H](C(=O)N[C@H]1CCNC(=O)CC[C@@H](C(=O)N[C@@H](CO)C(N)=O)NC(=O)[C@H](C(C)C)NC(=O)[C@H](CO)NC(=O)[C@H](Cc2c[nH]c3ccccc23)NC(=O)CNC(=O)[C@@H](CCN)NC(=O)[C@H](CCC(=O)N[C@@H](CCN)C(=O)N[C@H](C(=O)N[C@@H](CN)C(=O)N[C@H]2CCNC(=O)[C@H]([C@@H](C)O)NC(=O)[C@H](CCN)NC(=O)[C@H](CCN)NC(=O)[C@H](CC(C)C)NC(=O)[C@@H](CC(C)C)NC(=O)[C@H](CCN)NC2=O)[C@@H](C)O)NC(=O)[C@H](CCN)NC(=O)[C@H](Cc2ccc(O)cc2)NC1=O)C(C)C [Ex. 349] (I: Ac-V[Dab]Y[Dab]E[dDab]GWSVES-NH2 / II: [Dab]T[Dap][Dab][Dab][dL]L[Dab][Dab]T; lactam I:2-I:11, II:4-II:C; amide I:5-II:N)",<1%,0.125 µg/mL,0.125 µg/mL,0.0625 µg/mL,0.25 µg/mL,0.25 µg/mL,0.0625 µg/mL,0.25 µg/mL,0.25 µg/mL
CC(=O)N[C@@H](CC(C)C)C(=O)N[C@H]1CSSC[C@@H](C(=O)N[C@@H](CO)C(N)=O)NC(=O)[C@H](C(C)(C)C)NC(=O)[C@H](CCN)NC(=O)[C@H](Cc2c[nH]c3ccccc23)NC(=O)[C@H](CCN)NC(=O)[C@@H](CCN)NC(=O)[C@H](CCC(=O)N[C@@H](CCN)C(=O)N[C@H](C(=O)N[C@@H](CCN)C(=O)N[C@H]2CCNC(=O)[C@H]([C@@H](C)O)NC(=O)[C@H](CCN)NC(=O)[C@H](CCN)NC(=O)[C@H](CC(C)C)NC(=O)[C@@H](CC(C)C)NC(=O)[C@H](CCN)NC2=O)[C@@H](C)O)NC(=O)[C@H](CCN)NC(=O)[C@H](Cc2ccc(O)cc2)NC1=O [Ex. 352] (I: Ac-LCY[Dab]E[dDab][Dab]W[Dab][Tle]CS-NH2 / II: [Dab]T[Dab][Dab][Dab][dL]L[Dab][Dab]T; disulfide I:2-I:11; amide I:5-II:N; lactam II:4-II:C),<1%,0.25 µg/mL,0.125 µg/mL,1 µg/mL,0.25 µg/mL,8 µg/mL,0.125 µg/mL,4 µg/mL,0.5 µg/mL
CC(=O)N[C@@H](CC(C)C)C(=O)N[C@H]1CSSC[C@@H](C(=O)N[C@@H](CO)C(N)=O)NC(=O)[C@H](C(C)C)NC(=O)[C@H](CCN)NC(=O)[C@H](Cc2c[nH]c3ccccc23)NC(=O)[C@H](CCN)NC(=O)[C@@H](CCN)NC(=O)[C@H](CCC(=O)N[C@@H](CCN)C(=O)N[C@H](C(=O)N[C@@H](CN)C(=O)N[C@H]2CCNC(=O)[C@H]([C@@H](C)O)NC(=O)[C@H](CCN)NC(=O)[C@H](CCN)NC(=O)[C@H](CC(C)C)NC(=O)[C@@H](CC(C)C)NC(=O)[C@H](CCN)NC2=O)[C@@H](C)O)NC(=O)[C@H](CCN)NC(=O)[C@H](Cc2ccc(O)cc2)NC1=O [Ex. 353] (I: Ac-LCY[Dab]E[dDab][Dab]W[Dab]VCS-NH2 / II: [Dab]T[Dap][Dab][Dab][dL]L[Dab][Dab]T; disulfide I:2-I:11; amide I:5-II:N; lactam II:4-II:C),<1%,0.25 µg/mL,0.125 µg/mL,1 µg/mL,0.25 µg/mL,8 µg/mL,0.125 µg/mL,4 µg/mL,4 µg/mL
